From US20240058302A1, “METHOD OF INDUCTION OF TUMOR ASSOCIATED ANTIGENS WITH BRYOSTATIN” (BryoLogyx Inc., priority 2019, published 2024)

Columns and labels:
[1] = tested on: CD22; test: Flow cytometry of surface protein expression, REH cell line stimulated with bryostatin-1; assay type: cell-based, human; conditions: REH (ALL) cells; bryostatin-1 0.001-1 nM, 24 or 72 hours; FIG. 1A
From the text: (§1) Bryostatin-1 has been examined in numerous tumor cell lines representing various hematological tumor types. Surface protein target expression was examined by flow cytometry with human cell lines stimulated with different concentrations of bryostatin-1. Human cell lines representative of different hematological disease indications of leukemia/lymphoma (Toledo, REH, DB), multiple myeloma (NCI-H929, U266B1, RPMI8226), and acute myeloid leukemia (Kasumi-1, AML-193, THP1) were used as target cell lines. Each cell line was treated with bryostatin-1 at 0.001, 0.01, 0.1, or 1 nM for either 24 hours or 72 hours in duplicate prior to measuring the surface molecule expression, quantitatively, of the following protein antigens by flow cytometry: CD19, CD20, CD22, CD33, CD37, CD38, CD123, CD269 (BCMA), and isotype control. Bryostatin-1 caused an upregulation of some antigens and not others.

[2] = tested on: CD123; test: Flow cytometry of surface protein expression, AML193 cell line stimulated with bryostatin-1; assay type: cell-based, human; conditions: AML193 (AML) cells; bryostatin-1 0.001-1 nM, 24 or 72 hours; FIG. 1B
From the text: as §1

[3] = tested on: CD269 (BCMA); test: Flow cytometry of surface protein expression, NCI-H929 cell line stimulated with bryostatin-1; assay type: cell-based, human; conditions: NCI-H929 (MM) cells; bryostatin-1 0.001-1 nM, 24 or 72 hours; FIG. 1C
From the text: as §1

[4] = tested on: CD19; test: Surface antigen expression on primary B cells from healthy donors, MM or CLL patients; assay type: cell-based, human; conditions: 72 h exposure
From the text: (§2) The ability of bryostatin-1 at multiple concentrations to modulate the surface expression of multiple antigens (CD5, CD19, CD20, CD22, CD37, CD200/OX2 and CD269/BCMA) at two time points on primary B cells from healthy donors (2 donors) or patients with multiple myeloma (2 patients, MM) or chronic lymphocytic leukemia (4 patients, CLL) was investigated.

[5] = tested on: CD22; test: as above; assay type: cell-based, human
From the text: as §2

[6] = tested on: CD5; test: as above; assay type: cell-based, human; conditions: 24 h exposure
From the text: as §2

[7] = tested on: tumor cells derived from relapsed, low-expressing TAA patients; test: PDX model with CD22-directed CAR-T and bryostatin-1; assay type: in vivo; conditions: bryostatin-1 administered on Day 45 after CD22-directed CAR-T cells on Day 42
[8] = primary B cells of CLL patients
[9] = primary B cells of healthy donors

For `CCC/C=C/C=C/C(=O)O[C@H]1/C(=C/C(=O)OC)C[C@H]2C[C@H]([C@@H](C)O)OC(=O)C[C@H](O)C[C@@H]3C[C@H](OC(C)=O)C(C)(C)[C@](O)(C[C@@H]4C/C(=C/C(=O)OC)C[C@H](/C=C/C(C)(C)[C@]1(O)O2)O4)O3` [bryostatin-1, Bryostatin-1], the “CD22 cell surface expression” value [1] was “upregulated”, the “CD123 cell surface expression” value [2] was “upregulated” and the “CD269 (BCMA) cell surface expression” value [3] was “upregulated”. The CD19 expression [4, 8] was “increases”, the CD19 expression ([4]; primary B cells of MM patients) was “not” and the CD19 expression [4, 9] was “increases”. The CD22 expression [5, 8] was “upregulated”, the CD22 expression ([5]; primary B cells of MM patients) was “not” and the CD22 expression [5, 9] was “upregulated”. The CD5 expression [6, 8] was “not”, the CD5 expression ([6]; primary B cells of MM patients) was “increases” and the CD5 expression [6, 9] was “not”. For the same molecule, the Tumor response [7] was “induced the tumors to respond”.
